Assay results taken from patent US12226449B2, “Materials and methods for the prevention of rheumatoid arthritis” (The University of Toledo, priority 2018, dated 2025).
“Also recorded” adds a separate entry of the source.

Experiments:
human PBMCs [1] = experiment: T cell polarization of PBMCs by flow cytometry (CD4, CD366, IL-17, CD8, CD69); type: cell-based; conditions: incubated with 14-3-3ζ, 3 d
Lewis rats = experiment: Pristane-induced arthritis (PIA) model, immunization with 14-3-3ζ in IFA; type: in vivo, rat
Procedure: FIG. 12A depicts the process used for this example for evaluating the prevention of RA in rats. All animals were injected with 150 μl of Pristane subcutaneously at the root of the tail followed by injecting either 1 mg/kg of IFA mixed with 14-3-3ζ protein or IFA alone the next day. Additional injection of either IFA alone or mixed with 14-3-3ζ proteins were given after one week. Animals were evaluated twice every week. Each joint (20 per paw, total of 80 per animal) was scored for inflammation. Both male and female rats were equally divided (n=6-8) between IFA and 14-3-3ζ treated sets. Rats were euthanized at 43 d and blood was collected for analysis.
Exposure to 14-3-3ζ generates a strong immune response in Lewis rats. Due to highly reproducible induction of severe inflammation and chronic arthritis, PIA is a one of the standard models to investigate rheumatoid arthritis an autoimmune disease. Intradermal injection of Pristane leads to a strong T-cell infiltration, followed by a cytokine increase as well as visual manifestation of joint inflammation, prominently observed in the Lewis rats. To test the antigenic role of 14-3-3ζ in vivo, purified 14-3-3ζ protein was injected along with IFA one day after the animals were treated with Pristane (FIG. 12A).
The animals were immunized with either IFA alone, or mixed with 14-3-3ζ (IFA+Z, 1 mg/kg) at 1 and 7 d-post pristine injection. Animals were monitored and scored for RA.

human PBMCs [2] = experiment: ELISPOT assay of IFN-γ and IL-17 secreting cells; type: cell-based
Procedure: Cells were plated with 14-3-3ζ protein in a 96-well plate for 14 days at 37° C. in complete RPMI culture medium. Phytohemagglutinin (PHA) was used as a positive control. 10 μl MTT was added at a concentration of 5 mg/mL, and the plate was further incubated at 37° C. in the dark for 3 hours. Supernatant was then removed, and 100 μL DMSO was added for another hour before reading the absorbance at 570 nm using FLUOstar Omega microplate reader (BMG Labtech). For T cell differentiation, PBMCs were incubated with 1 μg/ml of 14-3-3ζ for 7 days followed by either the cellular staining for FACS analysis or ELISPOT as per manufacture's protocol. For testing the effect of drugs, prednisolone, prednisone, as well as TJU103, were used at 1 μg/ml concentration and cyclophosphamide was used at 0.1 μg/ml concentration.
The protocol was adopted from Immunospot kit from Cellular Technology Limited. In short, PBMCs incubated with 14-3-3ζ for 7 days were plated on the antibody coated ELISPOT plates. About 100,000 cells/well were added and incubated for 2 days at 37° C. followed by the developing protocol. Plates were read with a Quantihub ELISPOT plate reader and manually counted.

human PBMCs [3] = experiment: T cell polarization of PBMCs by flow cytometry (CD4, CD366, IL-17, CD8, CD69); type: cell-based
Procedure: Cells were plated with 14-3-3ζ protein in a 96-well plate for 14 days at 37° C. in complete RPMI culture medium. Phytohemagglutinin (PHA) was used as a positive control. 10 μl MTT was added at a concentration of 5 mg/mL, and the plate was further incubated at 37° C. in the dark for 3 hours. Supernatant was then removed, and 100 μL DMSO was added for another hour before reading the absorbance at 570 nm using FLUOstar Omega microplate reader (BMG Labtech). For T cell differentiation, PBMCs were incubated with 1 μg/ml of 14-3-3ζ for 7 days followed by either the cellular staining for FACS analysis or ELISPOT as per manufacture's protocol. […] PBMCs incubated with 14-3-3ζ for 7 days at 37° C. were fixed in 2% paraformaldehyde for an hour, and washed with PBS. […] For surface staining, cells were stained in 50 μL PBS with 5 μl per million cells antibody for 30 minutes in the dark on ice. For intracellular staining, cells were permeabilized with Triton for 10-15 min. After staining, cells were washed with PBS and resuspended in 1 mL PBS for analysis. The following antibodies from Biolegend Inc. were used: […] Cells were sorted at FACSCanto II system (BD Biosciences) and analyzed using FlowJo software (version 10). A gate was created around an initial population of cells in the FSC-SSC plot, and this population of cells was further analyzed for CD4, CD366, and IL-17 expression. Unstained and isotype labelled cells were used as a control for setting the gates.

human PBMCs [4] = experiment: ELISA of secreted (accumulated) cytokines of PBMCs; type: cell-based; conditions: PBMC in the presence of 14-3-3ζ
rats = experiment: Immunization of rats with IFA and 14-3-3ζ without pristane; type: in vivo, rat; conditions: pristane absent
[5] = system: PBMC isolated from normal Lewis rats; experiment: Proliferation of rat PBMC incubated ex vivo; type: cell-based; conditions: incubated with 14-3-3ζ ex vivo
14-3-3ζ KO rats = experiment: Pristane-induced arthritis in 14-3-3ζ KO rats, 14-3-3ζ immunization; type: in vivo, rat; conditions: IFA+14-3-3ζ vs IFA, days post-pristane
From the text: FIGS. 16A-16B, to determine whether 14-3-3ζ is sufficient for RA suppression, 14-3-3ζ KO rats that are more susceptible to RA were used.

human PBMCs [6] = experiment: PBMC proliferation, MTT assay; type: cell-based; conditions: purified 14-3-3ζ 300 ng/ml and 1000 ng/ml, by 8 d; PHA 1% positive control
Procedure: Blood from healthy donors was collected as per the approved IRB protocol. The protocol for isolation of PBMCs was previously reported. In short, whole blood was diluted with an equal volume of RPMI before layering on Ficoll-Paque PLUS in a 15 mL tube. Tubes were then centrifuged for 25 minutes with the brakes off at 950 g. PBMCs were collected from the layer between the plasma and Ficoll liquid. PBMCs were then washed twice with RPMI, with 7 min spins at 350×g to pellet the cells. Finally, cells were resuspended in complete RPMI before counting and plating. […] Phytohemagglutinin (PHA) was used as a positive control. 10 μl MTT was added at a concentration of 5 mg/mL, and the plate was further incubated at 37° C. in the dark for 3 hours. Supernatant was then removed, and 100 μL DMSO was added for another hour before reading the absorbance at 570 nm using FLUOstar Omega microplate reader (BMG Labtech). For T cell differentiation, PBMCs were incubated with 1 μg/ml of 14-3-3ζ for 7 days followed by either the cellular staining for FACS analysis or ELISPOT as per manufacture's protocol.

[7] = PIA treated Lewis rats immunized with 14-3-3ζ

Q: Which results are given for “14-3-3ζ: human 14-3-3ζ protein, SEQ ID NO: 1, purified from E. coli; injected mixed with IFA in rats”?
A: CD69 expression on T cells (CD4 cells) (human PBMCs [1]): increases CD69 expression; also recorded: increased; also recorded: strong impact; joint inflammation / arthritis (RA) score (Lewis rats; Lewis rats, pristane, 14-3-3ζ 1 mg/kg mixed with IFA at 1 and 7 d post pristane, compared to IFA alone, 1 mg/kg): protection against rheumatoid arthritis; also recorded: protection against the arthritis; also recorded: significantly less inflammation of joints; also recorded: significant reduction of RA scores; also recorded: absent; also recorded: relatively stronger inflammation in IFA treatment compared to 14-3-3ζ treatment; also recorded: no sign of arthritis; also recorded: prevents the development of RA; increase in the level of IFN-γ in the circulating sera (Lewis rats; [7]): 10 to 15 folds; increase in the level of IL-17 in the circulating sera (Lewis rats; [7]): 10 to 15 folds; increase in the level of anti-14-3-3ζ IgG in the circulating sera (Lewis rats; [7]): 10 to 15 folds; anti-14-3-3ζ antibody level (sera, synovial fluid) (Lewis rats; compared to IFA alone): significant production of anti-14-3-3ζ IgG; also recorded: significantly higher levels; also recorded: increased 14-3-3ζ antibody levels; circulating (sera) IFN-γ level (Lewis rats; compared to IFA alone): significantly higher levels; also recorded: much higher levels; circulating IL-17 level (Lewis rats; compared to IFA alone): significantly higher levels; H&E stain: immune cell infiltration and tissue damage (Lewis rats; compared to IFA treated animal): lesser sign of inflammation and damage; level of IFN-γ (number of IFN-γ colonies) compared with 14-3-3ε (human PBMCs [2]; FIG. 6B and FIG. 12L): significantly more than 14-3-3ε; number of IFN-γ and IL-17 secreting cells (human PBMCs [2]; PBMC treated with protein for 7 d): robust response; also recorded: robust increase; CD8+ cells (total number or activation) (human PBMCs [3]; 14-3-3ζ treated PBMC): No significant increase; also recorded: No change; also recorded: no significant effect; total number of CD4+ cells (human PBMCs [3]; 14-3-3ζ treated PBMC, 7 d): no significant change; CD4 cells positive for both CD366 and IL-17 (minor population <1%) (human PBMCs [3]; presence of 14-3-3ζ): unchanged; CD366 or IL-17 positive CD4 cells (Th1, Th17) (human PBMCs [3]; protein 1 μg/ml, 7 d): more CD366 or IL-17 positive CD4 cells; also recorded: significant increase; IL-6 level (human PBMCs [4]): no significant effect; accumulated secreted IL-17 (IL-17A) (human PBMCs [4]): significant increased accumulation; levels of IL-10 or IL-12 (human PBMCs [4]): no effect; induction of RA pathology (pathogenicity) (rats; IFA and 14-3-3ζ): no significant induction of RA pathology; immunogenicity: 14-3-3ζ antibody generation and IL-17 induction (rats): 14-3-3ζ antibody generation and IL-17 induction; rat PBMC proliferation [5]: increased proliferation; RA score (14-3-3ζ KO rats): suppressed the RA; body weight (14-3-3ζ KO rats): gain in body weights; PBMC proliferation (MTT assay) (human PBMCs [6]): promoted; also recorded: strong proliferation induction; also recorded: comparable and dose-dependent effect
